According to ChEMBL document CHEMBL1201862, “PubChem BioAssay data set” (2004):
Calls of active or inactive are those of the source.

Tests used:
[1] = system: HEK293; experiment: optical interference in Abeta FP readout, dose response, artefact control for IDE activator project, biochemical, fluorescence polarization (AID 588442); assay type: functional, cell-based; details: Homo sapiens
[2] = target: T1, Insulin-degrading enzyme (Homo sapiens, UniProt P14735); experiment: activators of endogenous IDE in HEK cells, dose response, cell-based, fluorescence polarization (AID 588439); assay type: functional
T1 sequence (P14735 whole entry): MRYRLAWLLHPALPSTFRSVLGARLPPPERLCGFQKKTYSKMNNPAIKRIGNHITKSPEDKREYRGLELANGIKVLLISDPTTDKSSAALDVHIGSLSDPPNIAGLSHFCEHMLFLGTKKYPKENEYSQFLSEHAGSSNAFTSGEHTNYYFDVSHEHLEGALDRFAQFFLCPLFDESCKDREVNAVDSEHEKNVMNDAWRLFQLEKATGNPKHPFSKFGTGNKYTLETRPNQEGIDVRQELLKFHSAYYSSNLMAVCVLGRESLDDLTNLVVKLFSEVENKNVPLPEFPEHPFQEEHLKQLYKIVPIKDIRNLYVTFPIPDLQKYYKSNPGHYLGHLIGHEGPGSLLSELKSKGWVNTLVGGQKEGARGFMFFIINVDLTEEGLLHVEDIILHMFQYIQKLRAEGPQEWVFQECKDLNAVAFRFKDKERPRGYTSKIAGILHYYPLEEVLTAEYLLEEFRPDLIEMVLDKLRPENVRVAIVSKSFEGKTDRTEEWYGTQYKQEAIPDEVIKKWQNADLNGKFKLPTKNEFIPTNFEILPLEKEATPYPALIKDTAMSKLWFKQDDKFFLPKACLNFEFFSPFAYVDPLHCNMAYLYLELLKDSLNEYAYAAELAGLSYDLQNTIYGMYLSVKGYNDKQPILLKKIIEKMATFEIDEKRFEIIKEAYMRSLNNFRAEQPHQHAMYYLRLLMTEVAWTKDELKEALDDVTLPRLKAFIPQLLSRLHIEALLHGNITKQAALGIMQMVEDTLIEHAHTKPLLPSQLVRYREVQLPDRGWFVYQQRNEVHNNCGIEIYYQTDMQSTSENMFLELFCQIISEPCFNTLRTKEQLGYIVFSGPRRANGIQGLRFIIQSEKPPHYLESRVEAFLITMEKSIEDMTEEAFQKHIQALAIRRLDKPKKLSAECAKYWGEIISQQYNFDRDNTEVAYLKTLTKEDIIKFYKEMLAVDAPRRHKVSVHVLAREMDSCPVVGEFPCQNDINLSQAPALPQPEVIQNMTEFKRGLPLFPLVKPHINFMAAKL

[3] = target: T1, Insulin-degrading enzyme; experiment: activators of recombinant IDE enzyme, dose response, counter-screen for IDE activator project, biochemical, fluorescence polarization (AID 588681)
[4] = system: HEK293; experiment: HEK cell cytotoxicity by LDH release, dose response, cytotoxicity control for IDE activator project, fluorescence, HEK cells (AID 588440); assay type: functional, cell-based; details: Homo sapiens;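 further: cytotoxicity by LDH release measuring loss of membrane integrity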
[5] = system: HEK293; experiment: inhibitors of LMP1-driven NF-kB reporter, dose response, cell-based, HEK293, luciferase, cherry-pick (AID 588343); assay type: functional; details: Homo sapiens
[6] = target: T2, Sentrin-specific protease 8 (Homo sapiens, UniProt Q96LD8); assay type: functional;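 further: luminescence read-out of SENP8 inhibition, dose-response confirmation following an ultra-high-throughput screen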
T2 sequence (Q96LD8 whole entry): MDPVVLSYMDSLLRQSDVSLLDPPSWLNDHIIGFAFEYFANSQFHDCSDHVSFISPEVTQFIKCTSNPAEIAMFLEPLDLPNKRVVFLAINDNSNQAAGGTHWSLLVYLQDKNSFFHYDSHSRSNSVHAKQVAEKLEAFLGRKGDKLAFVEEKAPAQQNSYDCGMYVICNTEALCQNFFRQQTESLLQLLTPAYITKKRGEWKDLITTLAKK

[7] = target: T3, Sentrin-specific protease 6 (Homo sapiens, UniProt Q9GZR1); experiment: SAR Analysis of small molecule inhibitors of Sentrin-specific protease 6 (SENP6) using a Luminescent assay. [Related pubchem assays (depositor defined):AID2582, AID2599]; assay type: functional
T3 sequence (Q9GZR1 whole entry): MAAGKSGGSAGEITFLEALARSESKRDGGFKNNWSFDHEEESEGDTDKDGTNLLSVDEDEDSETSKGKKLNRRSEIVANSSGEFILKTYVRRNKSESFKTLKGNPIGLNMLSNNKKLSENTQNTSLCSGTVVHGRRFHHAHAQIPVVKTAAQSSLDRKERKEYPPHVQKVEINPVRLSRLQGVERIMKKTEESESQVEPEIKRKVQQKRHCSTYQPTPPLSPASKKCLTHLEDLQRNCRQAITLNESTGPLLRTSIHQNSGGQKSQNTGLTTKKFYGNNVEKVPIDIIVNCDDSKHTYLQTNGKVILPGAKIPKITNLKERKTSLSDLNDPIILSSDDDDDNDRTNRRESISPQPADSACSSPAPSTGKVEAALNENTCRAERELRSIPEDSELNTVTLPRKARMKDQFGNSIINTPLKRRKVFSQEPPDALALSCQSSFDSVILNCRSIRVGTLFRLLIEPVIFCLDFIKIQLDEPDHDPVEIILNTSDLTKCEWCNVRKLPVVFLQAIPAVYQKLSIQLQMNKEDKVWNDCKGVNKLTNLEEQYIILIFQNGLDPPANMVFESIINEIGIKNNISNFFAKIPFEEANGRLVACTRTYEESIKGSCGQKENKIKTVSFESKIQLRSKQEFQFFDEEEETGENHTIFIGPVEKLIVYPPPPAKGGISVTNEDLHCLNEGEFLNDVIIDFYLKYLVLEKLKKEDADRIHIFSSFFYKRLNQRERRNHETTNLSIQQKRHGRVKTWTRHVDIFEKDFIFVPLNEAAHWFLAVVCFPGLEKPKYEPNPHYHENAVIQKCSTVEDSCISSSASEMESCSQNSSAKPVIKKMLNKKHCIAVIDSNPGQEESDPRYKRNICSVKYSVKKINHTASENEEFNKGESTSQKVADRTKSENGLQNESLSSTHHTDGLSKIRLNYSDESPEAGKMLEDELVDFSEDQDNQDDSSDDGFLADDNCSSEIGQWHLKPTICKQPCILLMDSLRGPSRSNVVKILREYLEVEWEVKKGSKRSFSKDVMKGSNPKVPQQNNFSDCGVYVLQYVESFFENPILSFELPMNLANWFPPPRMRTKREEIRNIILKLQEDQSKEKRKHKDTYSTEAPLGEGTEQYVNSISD

[8] = target: T4, Sentrin-specific protease 7 (Homo sapiens, UniProt Q9BQF6); experiment: SENP7 protease inhibitors, SAR follow-up, biochemical, luminescence (AID 504497); assay type: functional
T4 sequence (Q9BQF6 whole entry): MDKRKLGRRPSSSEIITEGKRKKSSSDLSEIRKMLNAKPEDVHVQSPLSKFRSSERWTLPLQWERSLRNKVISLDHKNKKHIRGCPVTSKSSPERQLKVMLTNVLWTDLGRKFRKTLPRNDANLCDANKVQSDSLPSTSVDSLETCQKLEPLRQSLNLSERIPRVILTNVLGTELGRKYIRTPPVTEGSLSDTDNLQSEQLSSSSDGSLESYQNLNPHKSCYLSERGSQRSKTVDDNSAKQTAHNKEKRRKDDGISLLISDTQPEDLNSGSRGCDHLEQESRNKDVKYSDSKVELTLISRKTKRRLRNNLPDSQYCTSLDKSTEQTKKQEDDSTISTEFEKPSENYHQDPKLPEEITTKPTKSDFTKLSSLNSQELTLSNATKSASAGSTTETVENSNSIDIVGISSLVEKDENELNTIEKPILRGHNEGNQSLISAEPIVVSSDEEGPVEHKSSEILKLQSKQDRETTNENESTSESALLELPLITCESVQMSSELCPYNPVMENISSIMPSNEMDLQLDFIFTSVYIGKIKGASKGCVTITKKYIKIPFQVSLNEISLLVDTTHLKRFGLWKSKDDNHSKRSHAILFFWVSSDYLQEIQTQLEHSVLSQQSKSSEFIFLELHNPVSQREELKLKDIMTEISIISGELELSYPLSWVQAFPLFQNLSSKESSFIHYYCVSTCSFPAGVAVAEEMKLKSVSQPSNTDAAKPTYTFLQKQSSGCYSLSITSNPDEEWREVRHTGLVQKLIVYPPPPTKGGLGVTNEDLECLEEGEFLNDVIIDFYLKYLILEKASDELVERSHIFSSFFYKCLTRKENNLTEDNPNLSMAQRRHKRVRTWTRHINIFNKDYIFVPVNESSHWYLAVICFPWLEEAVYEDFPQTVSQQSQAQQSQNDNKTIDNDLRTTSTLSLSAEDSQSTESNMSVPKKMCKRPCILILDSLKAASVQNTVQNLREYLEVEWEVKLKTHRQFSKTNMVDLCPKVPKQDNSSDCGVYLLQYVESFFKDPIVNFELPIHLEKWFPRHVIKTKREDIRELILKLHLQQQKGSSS

[9] = target: T4, Sentrin-specific protease 7; assay type: functional
[10] = target: T3, Sentrin-specific protease 6; assay type: functional
[11] = Luminescence Cell-Based Dose Response HTS to Identify Inhibitors of 5'UTR Stem-Loop Driven Prion Protein mRNA Translation in H4 Neuroglioblastoma Cells. [Related pubchem assays: 1827 (Project Summary), 1813 (Primary HTS)]; assay type: functional
[12] = system: Streptococcus; experiment: Group A Streptococcus viability loss, dose response, counter-screen for streptokinase expression inhibitor project, luminescence, BacTiterGlo (AID 1915); assay type: functional, organism-based;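 further: potency for reduction of bacterial viability or growth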
[13] = target: T5, Caspase-3 (Homo sapiens, UniProt P42574); assay type: functional
T5 sequence (P42574 whole entry): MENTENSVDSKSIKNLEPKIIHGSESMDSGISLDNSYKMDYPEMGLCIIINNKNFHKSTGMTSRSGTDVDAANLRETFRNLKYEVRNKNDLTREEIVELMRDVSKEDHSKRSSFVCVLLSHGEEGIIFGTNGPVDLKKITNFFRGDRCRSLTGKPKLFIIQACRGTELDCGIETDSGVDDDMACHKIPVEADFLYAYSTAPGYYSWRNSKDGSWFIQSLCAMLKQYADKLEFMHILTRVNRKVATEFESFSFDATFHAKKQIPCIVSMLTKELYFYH

[14] = inhibitors of firefly luciferase expression or activity, dose response, H4 neuroglioma cells, luminescence (AID 1990); assay type: functional, cell-based
[15] = target: Nonstructural protein 1 (Influenza A virus, UniProt Q194T2); assay type: functional, Influenza A virus (A/California/07/2009(H1N1))
[16] = target: T2, Sentrin-specific protease 8; experiment: SENP8 protease inhibitors, SAR follow-up, biochemical, luminescence (AID 504501); assay type: functional
[17] = inhibitors of SNCA 5'UTR-driven reporter translation, confirmation, H4 neuroglioma cells, luminescence (AID 1988); assay type: functional, cell-based
[18] = target: T5, Caspase-3; experiment: SAR Analysis of small molecule inhibitors of Sentrin-specific proteases (SENPs) using a Caspase-3 Selectivity assay. [Related pubchem assays (depositor defined):AID2540, AID2599, AID434973, AID489001]; assay type: functional
[19] = system: Streptococcus sp. 'group A'; experiment: growth inhibition of control SK(-) GAS strain, dose response, counter-screen for streptokinase expression inhibitor project, luminescence, kanamycin, BacTiterGlo, confirmation (AID 1900); assay type: functional, organism-based
[20] = system: BJ; experiment: cytotoxicity toward BJ-TERT fibroblasts, dose response, cell-based, RAS-independent, luminescence (AID 1933); assay type: functional; details: Homo sapiens
[21] = system: BJ; experiment: cytotoxicity toward BJ-TERT-LT-ST fibroblasts, dose response, cell-based, RAS-independent, luminescence (AID 1935); assay type: functional; details: Homo sapiens;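 further: BJ fibroblasts immortalized with TERT plus LT and ST oncogenes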
[22] = system: BJ; experiment: cytotoxicity toward Ras-transformed BJeLR fibroblasts, dose response, cell-based, alamar blue fluorescence, cherrypicked samples (AID 2631); assay type: functional; details: Homo sapiens;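 further: confirmatory dose-response assay in RAS-dependent BJ fibroblasts engineered with TERT, LT and ST, with cytotoxicity read by fluorescence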
[23] = system: BJ; experiment: cells; assay type: functional, cell-based; details: Homo sapiens
[24] = cytotoxicity toward DRD oncogenic fibroblasts, dose response, cell-based, non-viral oncogenic, luminescence (AID 1934); assay type: functional; details: Homo sapiens

Sequence of Nonstructural protein 1 (Q194T2 whole entry): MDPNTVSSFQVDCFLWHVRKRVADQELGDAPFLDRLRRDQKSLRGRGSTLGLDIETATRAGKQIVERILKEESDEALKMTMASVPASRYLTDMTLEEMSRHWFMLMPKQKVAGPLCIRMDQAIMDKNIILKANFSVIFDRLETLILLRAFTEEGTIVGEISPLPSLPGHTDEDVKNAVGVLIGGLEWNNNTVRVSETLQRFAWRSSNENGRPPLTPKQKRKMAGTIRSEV

Compound: COCCN=C(S)N(C)C1(c2ccccc2Cl)CCCCC1=O (stereo not given)
- EC50 [1]: > 55.9 µM (inactive)
- EC50 [2]: > 54.7 µM (inactive)
- EC50 [3]: > 54.7 µM (inactive)
- IC50 [4]: > 89.2 µM (inactive)

Compound: O=[N+]([O-])c1ccc(O)c(/C=N/Nc2ncnc3c2cnn3-c2ccccc2)c1
- AC50 [5]: 18.5 µM (active)
- IC50 [6]: 2.44 µM (active)
- IC50 [7]: 1.54 µM (active)
- IC50 [8]: 1.4 µM (active)
- IC50 [9]: 1.94 µM (active)
- IC50 [10]: 11.3 µM (active)
- EC50 [11]: 23.6 µM (active)
- EC50 [12]: 1.01 µM (active)
- IC50 [13]: > 100 µM (inactive)
- EC50 [14]: 11.4 µM (active)
- IC50 [15]: > 100 µM (active)
- IC50 [16]: 1.49 µM (active)
- EC50 [17]: 5.1 µM (inconclusive)
- IC50 [18]: 4.42 µM (active)
- EC50 [19]: 1.02 µM (active)

Compound: CCOc1cc(C(=S)N2CCCC2)ccc1OCc1ccccc1F
- IC50 [7]: > 99 µM (inactive)
- IC50 [8]: > 99 µM (inactive)
- IC50 [16]: > 99 µM (inactive)
- IC50 [18]: > 99 µM (inactive)

Compound: COc1c(C(=O)Nc2ccc3[nH]c(O)nc3c2)cc2ccccc2c1Br
- EC50 [1]: > 54.7 µM (inactive)
- EC50 [2]: > 54.7 µM (inactive)
- EC50 [3]: > 54.7 µM (inactive)
- IC50 [4]: 34.5 µM (inactive)

Compound: Cn1cc(/C=C/C(=O)c2ccccc2)c2ccccc21
- IC50 [6]: 64.9 µM (active)
- IC50 [9]: 3.24 µM (active)
- IC50 [10]: 7.58 µM (active)
- IC50 [13]: 17.7 µM (active)

Compound: COc1ccc(-c2coc3cc4oc(=O)c5ccccc5c4cc23)cc1F
- EC50 [20]: 0.669 µM (inconclusive)
- EC50 [21]: 0.66 µM (inconclusive)
- EC50 [22]: 0.618 µM (inconclusive)
- EC50 [23]: 109 µM (inconclusive)
- EC50 [24]: 0.923 µM (active)

Compound: Cc1ccnc(Nc2nc(-c3ccc(F)cc3)cs2)c1
- IC50 [6]: 9.93 µM (active)
- IC50 [9]: 6.9 µM (active)
- IC50 [10]: 38.4 µM (active)
- IC50 [13]: 44.4 µM (active)
